Results: US20120020958A1, “FIBCD1 FOR THE PREVENTION AND TREATMENT OF DISEASES” (Dansk Universitet, priority 2008, published 2012)
Where two headings read alike, the source gives them in different places.

Assays:
[1] = molecular target: T1, FIBCD1 ectodomain (Homo sapiens, UniProt Q8N539); assay: ELISA inhibition of binding between FIBCD1 ectodomain and acetylated BSA; conditions: for I50 relative (relative inhibitor potential): I50 of the best inhibitor divided by I50 of the compound; for IC50: read-out: I50 of the binding between FIBCD1 and acetylated BSA; for inhibition of binding of FIBCD1 to acetylated BSA: at a concentration of 50 mM
T1 construct: The V5-His tagged putative ectodomain of FIBCD1, encoding amino acid 54-461, was generated by PCR; made in house; host or cells: HEK293 (Flp-In T-REx), secreted via pSecTag/FRT/V5-His TOPO vector
T1 sequence (Q8N539 54-461): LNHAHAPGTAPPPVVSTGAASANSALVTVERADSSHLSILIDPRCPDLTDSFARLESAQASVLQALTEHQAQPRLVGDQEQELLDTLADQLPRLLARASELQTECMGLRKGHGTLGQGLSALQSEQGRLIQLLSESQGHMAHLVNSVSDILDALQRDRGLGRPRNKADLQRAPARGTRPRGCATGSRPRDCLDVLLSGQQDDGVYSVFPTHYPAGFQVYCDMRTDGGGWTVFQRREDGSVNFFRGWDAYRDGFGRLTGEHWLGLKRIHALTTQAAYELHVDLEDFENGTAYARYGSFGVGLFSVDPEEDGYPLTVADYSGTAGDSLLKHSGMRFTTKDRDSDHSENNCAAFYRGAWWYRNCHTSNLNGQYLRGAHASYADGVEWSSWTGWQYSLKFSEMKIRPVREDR
Protocol: The ligand selectivity of FIBCD1 was investigated by inhibiting the binding of FIBCD1 ectodomain to acetylated BSA coated microtiter plates (FIG. 2G, Table 1).
(§1) An ELISA system was used to evaluate the ability of various acetylated and nonacetylated compounds to inhibit the binding between FIBCD1 ectodomain and acetylated BSA (Sigma). Microtiter plates (NUNC Maxisorp, Denmark) were coated with acetylated BSA (Sigma) or BSA (Sigma) and blocked with TBS/Tw before being incubated with FIBCD1 ectodomain samples diluted in TBS/Tw (5 mM CaCl2). The binding between FIBCD1 and acetylated BSA was also tested in the presence of 10 mM EDTA, 5 mM MnCl2 or 5 mM MgCl2 instead of CaCl2. After incubation overnight at 4° C. and washing, the wells were incubated for 2 h at room temperature with chicken anti-FIBCD1 antibodies diluted 1:1000 in TBS/Tw (5 mM CaCl2). The plates were washed with TBS/Tw (5 mM CaCl2) and incubated for 1 h with alcalic phosphatase-labelled anti-chicken IgY (whole molecule) (Sigma-Aldrich) diluted 1:1500 in TBS/Tw (5 mM CaCl2) followed by washing and developed with 1 mg/ml para-nitrophenylphosphate, disodium salt (PNPP) (Boehringer Mannheim, Germany) in substrate buffer.
The mixtures were incubated overnight in the acetylated BSA coated wells overnight at 4° C. and processed as described above.

[2] = molecular target: T2, FIBCD1 (Homo sapiens, UniProt Q8N539); assay: ELISA binding of FIBCD1 to coated microtiter plates; conditions: for substitution for calcium in binding to acetylated BSA: 5 mM MnCl2 or 5 mM MgCl2 instead of CaCl2; for binding of FIBCD1 to coated substance: ELISA, microtiter plates coated with the substance
T2 construct: The V5-His tagged putative ectodomain of FIBCD1, encoding amino acid 54-461, was generated by PCR; made in house; host or cells: HEK293 (Flp-In T-REx), secreted via pSecTag/FRT/V5-His TOPO vector
T2 sequence (Q8N539 54-461): T1 sequence (Q8N539 54-461)
Protocol: (A) SDS-PAGE and Western blotting analysis of culture supernatant from HEK293 cells expression FIBCD1 in the non-reduced (lane 1) and reduced (lane 2) state developed with the monoclonal rat anti-FIBCD1 (HG-HYB-12-2). […] (D) Silver stained SDS-PAGE of fractions from (E) in the reduced and unreduced state. (E) Microtiterplates were coated with BSA or NAc-BSA and increasing amounts of FIBCD1 was added in the presence 5 mM CaCl2 or 10 mM EDTA. (F) Microtiterplates were coated with NAc-BSA and 100 ng/ml and FIBCD1 was added in the presence 0-1 mM CaCl2. (G) Microtiterplates were coated with NAc-BSA and increasing amounts of FIBCD1 was added in the presence 5 mM CaCl2, 5 mM MgCl2 or 5 mM MnCl2.
(§2) (A) Microtiter plates were coated with LPS 055, LPS 0111 LPS 026 or NAc-BSA. (B) Microtiterplates were coated with LTA, mannan, peptidoglycan or NAc-BSA and increasing concentrations of FIBCD1 was added. (C) Pull-down assays where 20 μg of the FIBCD1 (the FReD of FIBCD1) or as a positive control 20 μg of wheat germ agglutinin (WGA) was added to 2 mg insoluble chitin, cellulose, zymozane or beta-glucan. […] BSA was used as control. Pellet fractions were analyzed by SDS-PAGE and Coomassie blue staining.
as §1

[3] = system: CHO cells transfected with FIBCD1 cDNA; assay: FIBCD1-mediated endocytosis of acetylated BSA in CHO cells; format: cell-based, Chinese hamster; conditions: for uptake and degradation of 125I labelled acetylated BSA: GlcNAc at 10 mM
Protocol: Degradation was measured, as the cell-mediated increase in of TCA-soluble radioactivity in the growth medium and cell-associated was determined by counting the radioactivity of the cell lysate. (A) CHO cells and (B) CHO/FIBCD1 cells. (C) Effect of lysosomal inhibitors chloroquine and leupeptin (both 100 μM) on endocytosis of NAc-BSA. Values are mean+/−1 SD of triplicate samples. […] Fluorescence microscopy of CHO-FReD (E) and CHO (F) after incubation with Alexa488 acetylated BSA.

[4] = molecular target: T3, FIBCD1 (the FReD of FIBCD1) (Homo sapiens, UniProt Q8N539); assay: Pull-down assay of FIBCD1 (FReD) with insoluble polysaccharides; format: binding; conditions: 20 μg FIBCD1 FReD, 2 mg insoluble substance
T3 construct: 20 μg of the FIBCD1 (the FReD of FIBCD1)
T3 sequence (Q8N539 235-458 limits assumed): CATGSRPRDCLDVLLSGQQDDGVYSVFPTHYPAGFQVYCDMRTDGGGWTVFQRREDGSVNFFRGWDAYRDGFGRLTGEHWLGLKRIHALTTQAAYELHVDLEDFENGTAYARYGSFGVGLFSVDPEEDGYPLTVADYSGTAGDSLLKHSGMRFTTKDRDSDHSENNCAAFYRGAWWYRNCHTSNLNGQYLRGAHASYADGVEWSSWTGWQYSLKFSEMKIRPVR
Protocol: as §2, with “(B)” for “(A) Microtiter plates were coated with LPS 055, LPS 0111 LPS 026 or NAc-BSA. (B)”

[5] = 100 ng/ml FIBCD1 ectodomain, 5 mM CaCl2, N.I. = less than 50% inhibition at 50 mM

Molecule: N[C@@H]1C(O)O[C@H](CO)[C@@H](O)[C@@H]1O (some centres unmarked) [Mannosamine, mannosamine, reference compound]
- I50 of the binding between FIBCD1 and acetylated BSA [1, 5]: N.I.

Molecule: [Mg] [magnesium]
- substitution for calcium in binding to acetylated BSA [2]: could not

Molecule: [Mn+2] [manganese]
- substitution for calcium in binding to acetylated BSA [2]: could substitute for calcium

Molecule: peptidoglycan
- binding of FIBCD1 to coated substance [2]: no binding

Molecule: Alexa488 labelled acetylated BSA: acetylated BSA coupled with Alexa Fluor 488 C5 maleimide
- uptake in CHO cells transfected with FIBCD1 cDNA ([3]; fluorescence microscopy): mediate uptake
- uptake in non-transfected CHO cells [3]: no uptake

Molecule: CC(=O)N[C@H]1[C@H]([C@H](O)[C@H](O)CO)OC(O)(C(=O)O)C[C@@H]1O (some centres unmarked) [Sialic acid, N-acetylneuraminic acid]
- I50 relative (relative inhibitor potential) [1]: 1
- IC50 [1]: 2 mM

Molecule: N[C@H]1C(O)O[C@H](CO)[C@@H](O)[C@@H]1O (some centres unmarked) [Glucosamine, glucosamine, reference compound]
- I50 of the binding between FIBCD1 and acetylated BSA [1, 5]: N.I.

Molecule: N[C@H]1C(O)O[C@H](CO)[C@H](O)[C@@H]1O (some centres unmarked) [Galactoseamin, galactosamine, reference compound]
- I50 of the binding between FIBCD1 and acetylated BSA [1, 5]: N.I.

Molecule: cellulose
- binding of FIBCD1 in pull-down [4]: no binding

Molecule: C[C@H](N)C(=O)O [Alanine, L-alanine, reference compound]
- I50 of the binding between FIBCD1 and acetylated BSA [1, 5]: N.I.

Molecule: lipopolysaccharide [LPS]
- binding of FIBCD1 to coated substance [2]: no binding

Molecule: CC(=O)N[C@@H]1C(O)O[C@H](CO)[C@@H](O)[C@@H]1O (some centres unmarked) [N-acetylmannoseamine, N-acetyl mannosamine]
- I50 relative (relative inhibitor potential) [1]: 1
- IC50 [1]: 2 mM

Molecule: [Ca+2].[Cl-].[Cl-] [calcium, calcium chloride]
- calcium concentration for optimum binding to acetylated BSA ([2]; 100 ng/ml FIBCD1, 0-1 mM CaCl2): 0.6 mM

Molecule: zymosan
- binding of FIBCD1 in pull-down [4]: no binding

Molecule: CCCC(=O)[O-].[Na+] [Butyrate, sodium butyrate, reference compound]
- I50 of the binding between FIBCD1 and acetylated BSA [1, 5]: N.I.
- inhibition of binding of FIBCD1 to acetylated BSA [1]: did not inhibit

Molecule: β-1,3-glucan
- binding of FIBCD1 in pull-down [4]: no binding

Molecule: CC(=O)N[C@H]1C(O)O[C@H](CO)[C@@H](O)[C@@H]1O (some centres unmarked) [N-acetylglucosamine, N-acetyl glucosamine]
- I50 relative (relative inhibitor potential) [1]: 0.5
- IC50 [1]: 4 mM
- uptake and degradation of 125I labelled acetylated BSA ([3]; CHO/FIBCD1 cells): inhibited

Molecule: CC(=O)OCC[N+](C)(C)C [Acetylcholine, acetyl cholin]
- IC50 [1]: 10 mM

Molecule: N-acetyl bovine serum albumin [NAc-BSA]
- binding of FIBCD1 to coated substance [2]: binding
- binding of FIBCD1 to coated substance ([2]; listed as acetylated BSA): bound
- uptake and degradation of 125I labelled acetylated BSA ([3]; CHO/FIBCD1 cells): inhibited

Molecule: O=C[C@H](O)[C@@H](O)[C@@H](O)[C@H](O)CO [Galactose, galactose, reference compound]
- I50 of the binding between FIBCD1 and acetylated BSA [1, 5]: N.I.

Molecule: CCC(=O)[O-].[Na+] [Propionate, sodium propionate, reference compound]
- I50 of the binding between FIBCD1 and acetylated BSA [1, 5]: N.I.
- inhibition of binding of FIBCD1 to acetylated BSA [1]: did not inhibit

Molecule: lipoteichoid acid [LTA]
- binding of FIBCD1 to coated substance [2]: no binding

Molecule: CC(=O)N[C@@H](C)C(=O)O [N-acetylalanine]
- I50 relative (relative inhibitor potential) [1]: 0.5
- IC50 [1]: 4 mM

Molecule: CC(=O)N[C@@H]1[C@@H](O)[C@@H](O)[C@@H](CO)O[C@@H]1O [N-acetylgalactoseamine]
- IC50 [1, 5]: 5 mM
- I50 relative (relative inhibitor potential) [1]: 0.4

Molecule: mannan
- binding of FIBCD1 to coated substance [2]: no binding

Molecule: ^125I-labeled NAc-BSA: acetylated BSA labelled with 125I using the chloroamine-T method
- time at which cell-associated radioactivity reached a plateau ([3]; CHO/FIBCD1 cells, 37° C.): one
- uptake in non-transfected CHO cells [3]: no uptake
